Measured values reported in patent US8119621B2, “Tetrahydro-cyclopentyl pyrazole cannabinoid modulators” (Janssen Pharmaceutica N.V., priority 2005, dated 2012).
“And” between values parts separate entries of the source, which are not always exact repeats. Equal entries are not always repeated. Where two headings read alike, the source gives them in different places.

Legend:
human CB1 receptor [1] = target: T1, human CB1 receptor (Homo sapiens, UniProt P21554); experiment: Binding assay for CB1 agonists or inverse agonists ([3H]-CP-55,940 displacement, SK-N-MC membranes); settings: for inhibition at 0.25 µM / inhibition at 1 µM / inhibition at 0.2 µM: read-out: CB1 receptor binding percent inhibition; for inhibition at 0.2 µM: test concentration 0.2 μM (footnote 2)
T1 construct: expressed in transfected cells; host or cells: SK-N-MC cells, stably transfected with pcDNA3 CB-1 (human); semi-purified membrane pellet
Description: (§1) The human CB1 and CB2 receptors were stably expressed in SK-N-MC cells transfected with pcDNA3 CB-1 (human) or pcDNA3 CB-2 (human). The cells were grown in T-180 cell culture flasks under standard cell culture conditions at 37° C. in a 5% CO2 atmosphere. The cells were harvested by trysinization and homogenized in a homogenization buffer (10 mM Tris, 0.2 mM MgCl2, 5 mM KCl, with protease inhibitors aprotinin, leupeptin, pepstatin A and bacitracin) and centrifuged (2000 g). The supernatant was then centrifuged in 2M sucrose (31,300 g) to produce a semi-purified membrane pellet. The pellet was resuspended in homogenization and stored at −80° C.
(§2) On the day of the assay, the pellet was thawed on ice and diluted in assay buffer (50 mM Tris-HCl, 5 mM MgCl2, 2.5 mM EDTA, 0.5 mg/mL fatty acid free bovine serum albumin, pH 7.5). […] The plate was covered and incubated for 90 minutes at 30° C. The contents were then aspirated onto a Packard Unifilter GF/C filter bottom plate prewet with 0.5% polyethyleneimine. The wells of the polypropylene plate were rinsed and aspirated seven times with a 0.9% saline-0.5% Tween 20 solution. The Unifilter plate was dried, a scintillation cocktail was added to each well and the counts representing binding were quantitated in a TopCount scintillation counter.
(§3) For compounds tested, an IC50 binding value was obtained from percent inhibition studies in which various test concentrations were used. The binding value was calculated by linear regression.

human CB1 receptor [2] = target: T1, human CB1 receptor; experiment: Functional cell-based assay, CB1 receptor mediated change in CRE β-gal expression (adenylate cyclase activity); settings: for CB1 Receptor Functional Activity (change in functional activity): one compound concentration, vehicle treated cell = 100%
Source text: The CB1 and CB2 receptors are G-protein coupled receptors (GPCR), which influence cell function via the Gi-protein. These receptors modulate the activity of intracellular adenylate cyclase, which in turn produces the intracellular signal messenger cyclic-AMP (cAMP).
At baseline, or during non-ligand bound conditions, these receptors are constitutively active and tonically suppress adenylate cyclase activity. The binding of an agonist causes further receptor activation and produces additional suppression of adenylate cyclase activity. The binding of an inverse agonist inhibits the constitutive activity of the receptors and results in an increase in adenylate cyclase activity.
Test compounds were evaluated in SK-N-MC cells which, using standard transfection procedures, were stably transfected with human cDNA for pcDNA3-CRE β-gal and pcDNA3 CB1 receptor (human) or pcDNA3 CB2 receptor (human). By expressing CRE β-gal, the cells produced β-galactosidase in response to CRE promoter activation by cAMP. Cells expressing CRE β-gal and either the human CB1 or CB2 receptor will produce less β-galactosidase when treated with a CB1/CB2 agonist and will produce more β-galactosidase when treated with a CB1/CB2 inverse agonist.
The cells were grown in 96-well plates under standard cell culture conditions at 37° C. in a 5% CO2 atmosphere. After 3 days, the media was removed and a test compound in media (wherein the media was supplemented with 2 mM L-glutamine, […] sodium pyruvate, 0.1% low fatty acid FBS (fetal bovine serum) and antibiotics) was added to the cell. The plates were incubated for 30 minutes at 37° C. and the plate cells were then treated with forskolin over a 4-6 hour period, then washed and lysed. The β-galactosidase activity was quantitated using commercially available kit reagents (Promega Corp. Madison, Wis.) and a Vmax Plate Reader (Molecular Devices, Inc).
The change in β-galactosidase activity was determined by setting a vehicle treated cell's activity value at 100% and expressing the β-galactosidase activity measured in a corresponding compound treated cell as a percent of the vehicle treated cell activity.
The EC50 value for functional activity for compounds tested was calculated by linear regression and was obtained from studies in which varying compound concentrations were used.
Where an EC50 value was not obtained for a test compound, the value shown (in %) represents change in functional activity and was obtained from a study in which one compound concentration was used.

human CB2 receptor = target: T2, human CB2 receptor (Homo sapiens, UniProt P34972); experiment: Binding assay for CB2 agonists or inverse agonists ([3H]-CP-55,940 displacement, SK-N-MC membranes); settings: for inhibition at 0.25 µM / inhibition at 0.2 µM: read-out: CB2 receptor binding percent inhibition
T2 construct: expressed in transfected cells; host or cells: SK-N-MC cells, stably transfected with pcDNA3 CB-2 (human); semi-purified membrane pellet
Description: as §1, §2, §3

[3] = test concentration 0.25 μM (footnote 3)
[4] = test concentration 0.2 μM (footnote 2)

T2 sequence (P34972 whole entry): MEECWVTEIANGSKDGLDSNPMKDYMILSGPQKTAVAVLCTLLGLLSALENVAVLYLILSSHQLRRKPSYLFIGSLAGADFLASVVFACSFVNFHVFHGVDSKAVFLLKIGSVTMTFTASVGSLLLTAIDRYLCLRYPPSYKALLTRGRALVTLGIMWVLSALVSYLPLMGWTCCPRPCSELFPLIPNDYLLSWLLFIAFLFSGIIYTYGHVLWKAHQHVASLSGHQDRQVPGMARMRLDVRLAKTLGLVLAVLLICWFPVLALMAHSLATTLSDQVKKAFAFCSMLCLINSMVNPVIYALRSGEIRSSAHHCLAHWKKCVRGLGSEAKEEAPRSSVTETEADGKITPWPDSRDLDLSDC
T1 sequence (P21554 whole entry): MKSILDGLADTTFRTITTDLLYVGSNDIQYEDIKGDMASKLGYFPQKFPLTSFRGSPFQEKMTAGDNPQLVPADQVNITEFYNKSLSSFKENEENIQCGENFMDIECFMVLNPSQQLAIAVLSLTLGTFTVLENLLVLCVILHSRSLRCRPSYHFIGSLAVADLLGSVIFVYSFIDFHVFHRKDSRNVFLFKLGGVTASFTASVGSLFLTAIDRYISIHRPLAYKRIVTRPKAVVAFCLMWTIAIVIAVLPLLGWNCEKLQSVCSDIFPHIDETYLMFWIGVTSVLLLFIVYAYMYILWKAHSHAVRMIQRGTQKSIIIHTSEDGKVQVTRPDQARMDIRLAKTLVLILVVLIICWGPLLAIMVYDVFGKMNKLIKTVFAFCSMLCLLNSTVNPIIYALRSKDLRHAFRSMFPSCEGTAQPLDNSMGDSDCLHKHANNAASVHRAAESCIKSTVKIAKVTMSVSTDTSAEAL

SMILES: C[C@H](NS(=O)(=O)/C=C/c1nn(-c2ccc(F)cc2F)c2c1CCC2Cc1cccc(F)c1)c1ccccc1 (stereo partly drawn) [Cpd 1, (2E)-2-[1-(2,4-difluoro-phenyl)-6-(3-fluoro-benzyl)-1,4,5,6-tetrahydro-cyclopentapyrazol-3-yl]-ethenesulfonic acid [(1S)-1-phenyl-ethyl]-amide]
- inhibition at 0.25 µM (human CB1 receptor [1]): 5%
- EC50 (human CB1 receptor [2]; CB1 receptor functional agonist EC50, SK-N-MC cells, CRE β-gal, functional agonist): 40 nM
- inhibition at 0.25 µM (human CB2 receptor): 14%

SMILES: O=S(=O)(/C=C/c1nn(-c2ccc(F)cc2F)c2c1CCC2Cc1cccc(F)c1)NN1CCOCC1 (centres unmarked) [Cpd 2, (2E)-2-[1-(2,4-difluoro-phenyl)-6-(3-fluoro-benzyl)-1,4,5,6-tetrahydro-cyclopentapyrazol-3-yl]-ethenesulfonic acid morpholin-4-ylamide]
- inhibition at 0.25 µM (human CB1 receptor [1]; [3]): 0%
- CB1 Receptor Functional Activity (change in functional activity) (human CB1 receptor [2]): 58%
- inhibition at 0.25 µM (human CB2 receptor; [3]): 21%

SMILES: O=S(=O)(/C=C/c1nn(-c2ccc(F)cc2F)c2c1CCC2Cc1cccc(F)c1)NN1CCCCC1 (centres unmarked) [Cpd 3, (2E)-2-[1-(2,4-difluoro-phenyl)-6-(3-fluoro-benzyl)-1,4,5,6-tetrahydro-cyclopentapyrazol-3-yl]-ethenesulfonic acid piperidin-1-ylamide]
- inhibition at 0.25 µM (human CB1 receptor [1]; [3]): 22%
- EC50 (human CB1 receptor [2]): 5600 nM
- inhibition at 0.25 µM (human CB2 receptor; [3]): 0%

SMILES: C[C@@H](NS(=O)(=O)/C=C/c1nn(-c2ccc(F)cc2F)c2c1CCC2Cc1cccc(F)c1)c1ccccc1 (stereo partly drawn) [Cpd 4, (2E)-2-[1-(2,4-difluoro-phenyl)-6-(3-fluoro-benzyl)-1,4,5,6-tetrahydro-cyclopentapyrazol-3-yl]-ethenesulfonic acid [(1R)-1-phenyl-ethyl]-amide]
- inhibition at 0.25 µM (human CB1 receptor [1]): 24%
- CB1 Receptor Functional Activity (change in functional activity) (human CB1 receptor [2]): 34%
- inhibition at 0.25 µM (human CB2 receptor): 17%

SMILES: CC12CCC(C1)C(C)(C)[C@H]2NC(=O)c1nn(-c2ccc(F)cc2F)c2c1CCC2Cc1cccc(F)c1 (stereo partly drawn) [Cpd 7, 1-(2,4-difluoro-phenyl)-6-(3-fluoro-benzyl)-1,4,5,6-tetrahydro-cyclopentapyrazole-3-carboxylic acid [(2S)-1,3,3-trimethyl-bicyclo[2.2.1]hept-2-yl]-amide]
- inhibition at 0.25 µM (human CB1 receptor [1]): 60%
- inhibition at 0.25 µM (human CB2 receptor): 70%

SMILES: C[C@@H](NS(=O)(=O)/C=C/c1nn(-c2ccc(Cl)cc2Cl)c2c1CCC2Cc1cccc(Cl)c1)C1CCCCC1 (stereo partly drawn) [Cpd 9, (2E)-2-[6-(3-chloro-benzyl)-1-(2,4-dichloro-phenyl)-1,4,5,6-tetrahydro-cyclopentapyrazol-3-yl]-ethenesulfonic acid [(1R)-1-cyclohexyl-ethyl]-amide]
- inhibition at 0.25 µM (human CB1 receptor [1]; [3]): 44%
- inhibition at 0.25 µM (human CB2 receptor; [3]): 18%

SMILES: O=S(=O)(/C=C/c1nn(-c2ccc(Cl)cc2Cl)c2c1CCC2Cc1cccc(Cl)c1)NN1CCCCC1 (centres unmarked) [Cpd 10, (2E)-2-[6-(3-chloro-benzyl)-1-(2,4-dichloro-phenyl)-1,4,5,6-tetrahydro-cyclopentapyrazol-3-yl]-ethenesulfonic acid piperidin-1-ylamide]
- inhibition at 1 µM (human CB1 receptor [1]; test concentration 1 μM (footnote 1)): 18%

SMILES: C[C@H](NS(=O)(=O)/C=C/c1nn(-c2ccc(Cl)cc2Cl)c2c1CCC2Cc1cccc(Cl)c1)c1ccccc1 (stereo partly drawn) [Cpd 11, (2E)-2-[6-(3-chloro-benzyl)-1-(2,4-dichloro-phenyl)-1,4,5,6-tetrahydro-cyclopentapyrazol-3-yl]-ethenesulfonic acid [(1S)-1-phenyl-ethyl]-amide]
- inhibition at 0.25 µM (human CB1 receptor [1]; [3]): 27%

SMILES: O=C(N[C@@H]1c2ccccc2C[C@@H]1O)c1nn(-c2ccc(F)cc2F)c2c1CCC2Cc1cccc(F)c1 (stereo partly drawn) [Cpd 12, 1-(2,4-difluoro-phenyl)-6-(3-fluoro-benzyl)-1,4,5,6-tetrahydro-cyclopentapyrazole-3-carboxylic acid [(1R,2S)-2-hydroxy-indan-1-yl]-amide]
- IC50 (human CB1 receptor [1]): 90 nM
- inhibition at 0.25 µM (human CB1 receptor [1]): 63%
- CB2 receptor binding percent inhibition (human CB2 receptor; [3]): ^(3) 31%

SMILES: O=C(c1nn(-c2ccc(F)cc2F)c2c1CCC2Cc1cccc(F)c1)N1CCN(c2ccccc2)CC1 (centres unmarked) [Cpd 17, [1-(2,4-difluoro-phenyl)-6-(3-fluoro-benzyl)-1,4,5,6-tetrahydro-cyclopentapyrazol-3-yl]-(4-phenyl-piperazin-1-yl)-methanone]
- inhibition at 1 µM (human CB1 receptor [1]): 35%
- EC50 (human CB1 receptor [2]; CB1 Receptor Functional Inverse Agonist EC50, SK-N-MC cells, CRE β-gal, forskolin): 400 nM and 100 nM

SMILES: O=C(NN1CCOCC1)c1nn(-c2ccc(F)cc2F)c2c1CCC2Cc1cccc(F)c1 (centres unmarked) [Cpd 22, 1-(2,4-difluoro-phenyl)-6-(3-fluoro-benzyl)-1,4,5,6-tetrahydro-cyclopentapyrazole-3-carboxylic acid morpholin-4-ylamide]
- inhibition at 0.25 µM (human CB1 receptor [1]; [3]): 14%
- inhibition at 0.25 µM (human CB2 receptor; [3]): 0%

SMILES: O=C(c1nn(-c2ccc(F)cc2F)c2c1CCC2Cc1cccc(F)c1)N1CCOCC1 (centres unmarked) [Cpd 23, [1-(2,4-difluoro-phenyl)-6-(3-fluoro-benzyl)-1,4,5,6-tetrahydro-cyclopentapyrazol-3-yl]-morpholin-4-yl-methanone]
- inhibition at 0.25 µM (human CB1 receptor [1]; [3]): 0%
- inhibition at 0.25 µM (human CB2 receptor; [3]): 0%

SMILES: O=C(N[C@H](CO)c1ccccc1)c1nn(-c2ccc(F)cc2F)c2c1CCC2Cc1cccc(F)c1 (stereo partly drawn) [Cpd 24, 1-(2,4-difluoro-phenyl)-6-(3-fluoro-benzyl)-1,4,5,6-tetrahydro-cyclopentapyrazole-3-carboxylic acid [(1S)-2-hydroxy-1-phenyl-ethyl]-amide]
- inhibition at 0.2 µM (human CB1 receptor [1]): 0%
- inhibition at 0.2 µM (human CB2 receptor; [4]): 0%

SMILES: O=C(N[C@@H](CO)Cc1ccccc1)c1nn(-c2ccc(F)cc2F)c2c1CCC2Cc1cccc(F)c1 (stereo partly drawn) [Cpd 25, 1-(2,4-difluoro-phenyl)-6-(3-fluoro-benzyl)-1,4,5,6-tetrahydro-cyclopentapyrazole-3-carboxylic acid [(1R)-1-benzyl-2-hydroxy-ethyl]-amide]
- inhibition at 0.2 µM (human CB1 receptor [1]): 23%
- inhibition at 0.2 µM (human CB2 receptor; [4]): 31%

SMILES: O=C(N[C@@H](CCl)c1ccccc1)c1nn(-c2ccc(F)cc2F)c2c1CCC2Cc1cccc(F)c1 (stereo partly drawn) [Cpd 26, 1-(2,4-difluoro-phenyl)-6-(3-fluoro-benzyl)-1,4,5,6-tetrahydro-cyclopentapyrazole-3-carboxylic acid [(1R)-2-chloro-1-phenyl-ethyl]-amide]
- inhibition at 0.2 µM (human CB1 receptor [1]): 24%
- inhibition at 0.2 µM (human CB2 receptor; [4]): 32%

SMILES: O=C(N[C@H](CCl)Cc1ccccc1)c1nn(-c2ccc(F)cc2F)c2c1CCC2Cc1cccc(F)c1 (stereo partly drawn) [Cpd 27, 1-(2,4-difluoro-phenyl)-6-(3-fluoro-benzyl)-1,4,5,6-tetrahydro-cyclopentapyrazole-3-carboxylic acid [(1S)-1-benzyl-2-chloro-ethyl]-amide]
- inhibition at 0.2 µM (human CB1 receptor [1]): 14%
- inhibition at 0.2 µM (human CB2 receptor; [4]): 22%

SMILES: O=C(NN1CCCCC1)c1nn(-c2ccc(Cl)cc2Cl)c2c1CC/C2=C\c1ccc(F)cc1 [Cpd 28, (6E)-1-(2,4-dichloro-phenyl)-6-(4-fluoro-benzylidene)-1,4,5,6-tetrahydro-cyclopentapyrazole-3-carboxylic acid piperidin-1-ylamide]
- IC50 (human CB1 receptor [1]): 60 nM
- CB1 receptor binding percent inhibition (human CB1 receptor [1]; 0.2 µM): 0.06, ^(2) 68%
- CB2 receptor binding percent inhibition (human CB2 receptor; [4]): ^(2) 4%
